Among the data in ChEMBL document CHEMBL1122446 are I / E100 values, retold here.

Test [1] has as its target Dihydrofolate reductase (Lactobacillus casei) (UniProt P00381). Conditions: Lacticaseibacillus casei.
For test [2], the target named is T1, Dihydrofolate reductase (Homo sapiens) (UniProt P00374).
T1 sequence (whole entry): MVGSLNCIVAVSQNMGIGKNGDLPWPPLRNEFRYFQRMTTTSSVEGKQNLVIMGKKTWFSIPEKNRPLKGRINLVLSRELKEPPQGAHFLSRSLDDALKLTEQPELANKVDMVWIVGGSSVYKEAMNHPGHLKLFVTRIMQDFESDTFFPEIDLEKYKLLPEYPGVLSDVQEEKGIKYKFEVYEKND

For test [3], the target named is T2, Dihydrofolate reductase (Gallus gallus) (UniProt P00378).
T2 sequence (whole entry): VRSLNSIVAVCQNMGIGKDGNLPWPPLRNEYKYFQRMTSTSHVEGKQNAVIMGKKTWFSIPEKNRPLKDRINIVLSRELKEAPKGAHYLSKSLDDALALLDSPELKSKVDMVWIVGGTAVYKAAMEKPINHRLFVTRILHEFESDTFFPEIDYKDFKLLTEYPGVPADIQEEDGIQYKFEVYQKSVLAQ

Sequence of Dihydrofolate reductase (Lactobacillus casei) (P00381 whole entry): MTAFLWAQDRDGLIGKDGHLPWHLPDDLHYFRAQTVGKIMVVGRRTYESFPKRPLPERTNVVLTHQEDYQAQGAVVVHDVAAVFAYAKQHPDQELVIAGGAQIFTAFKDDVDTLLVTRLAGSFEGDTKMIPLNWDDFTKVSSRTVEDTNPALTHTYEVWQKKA

On to `CN(C)c1cccc2c(S(=O)(=O)NCCCCC(NC(=O)c3ccc(N(C)Cc4cnc5nc(N)nc(N)c5n4)cc3)C(=O)O)cccc12` (stereo unspecified), for which the I / E100 in test [1] was 1.9; in test [2], 2.9; in test [3], 3.5.

Regarding `CN(Cc1cnc2nc(N)nc(N)c2n1)c1ccc(C(=O)NC(CCCCN)C(=O)O)cc1` (stereo unspecified), the I / E100 turned out to be 1 in test [1], 1 in test [2] and 1.4 in test [3].
